This note sets out measurements from ChEMBL document CHEMBL1201862, “PubChem BioAssay data set” (2004).

Test [1] is described as follows: HGIII-sPLA2 enzyme inhibition potency – biochemical, QFRET, IC50, dose response (AID 743457).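 Note: green fluorescence rise as the enzyme cleaves BODIPY PC-A2 in liposomes.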
Test [2] deals with Glyceraldehyde-3-phosphate dehydrogenase (Homo sapiens, UniProt P04406).
Test [3] concerns the target T1, Fructose-bisphosphate aldolase (Mycobacterium tuberculosis, UniProt P9WQA3).
T1 sequence (P9WQA3 whole entry): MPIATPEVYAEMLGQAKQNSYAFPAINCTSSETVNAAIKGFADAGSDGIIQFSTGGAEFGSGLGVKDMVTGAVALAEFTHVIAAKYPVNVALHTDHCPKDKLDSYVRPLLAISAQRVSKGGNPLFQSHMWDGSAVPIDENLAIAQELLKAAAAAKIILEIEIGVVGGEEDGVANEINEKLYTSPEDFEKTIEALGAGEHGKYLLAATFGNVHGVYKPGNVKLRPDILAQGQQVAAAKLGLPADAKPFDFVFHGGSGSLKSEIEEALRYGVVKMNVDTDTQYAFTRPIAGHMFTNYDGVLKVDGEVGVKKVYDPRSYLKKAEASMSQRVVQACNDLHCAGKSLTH
Description: Fluorescence-based biochemical high throughput dose response assay for inhibitors of the fructose-bisphosphate aldolase (FBA) of M. tuberculosis. It counts as functional.

Test [4] addresses T2, Long-chain-fatty-acid--AMP ligase FadD28 (Mycobacterium tuberculosis, UniProt P9WQ59).
T2 sequence (P9WQ59 whole entry): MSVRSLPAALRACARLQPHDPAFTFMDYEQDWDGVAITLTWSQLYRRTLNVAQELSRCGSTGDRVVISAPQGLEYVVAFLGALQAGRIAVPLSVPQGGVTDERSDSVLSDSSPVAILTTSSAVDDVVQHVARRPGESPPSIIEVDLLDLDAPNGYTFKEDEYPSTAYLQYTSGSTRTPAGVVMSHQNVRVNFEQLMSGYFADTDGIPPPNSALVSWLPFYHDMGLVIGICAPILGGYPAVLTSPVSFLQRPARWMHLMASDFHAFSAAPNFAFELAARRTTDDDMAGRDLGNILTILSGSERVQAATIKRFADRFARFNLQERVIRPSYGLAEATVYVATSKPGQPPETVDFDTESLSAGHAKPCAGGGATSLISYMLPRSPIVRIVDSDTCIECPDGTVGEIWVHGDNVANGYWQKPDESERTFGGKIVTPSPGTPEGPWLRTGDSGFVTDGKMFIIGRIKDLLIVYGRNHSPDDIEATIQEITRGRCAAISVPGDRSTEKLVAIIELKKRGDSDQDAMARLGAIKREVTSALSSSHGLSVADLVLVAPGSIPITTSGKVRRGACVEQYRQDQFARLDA
Description: Fluorescence polarization aasay to screen for inhibitors that compete for the binding of FadD28 to a bisubstrate Measured in Biochemical System Using Plate Reader - 2147-01_Inhibitor_Dose_CherryPick_Activity. Format: functional, Mycobacterium tuberculosis H37Rv. Background: In fluorescence polarisation assays a small probe gives low polarisation when free and higher when bound to something large.

Test [5] can be described thus: blockers of bursicon-stimulated LGR2 cAMP reporter – cell-based, HEK293, CRE-luciferase reporter, cherry pick, set 2, dose response (AID 743343).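 Note: transfected cells were stimulated with diluted bursicon conditioned medium after compound addition.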 Format: functional. On the technique in general: A reporter such as luciferase makes a cellular process visible.
Test [6] in a line: A549 cell cytotoxicity, dose response, cytotoxicity control, plate reader, cherry-pick, antagonist series (AID 743412). It counts as functional, cell-based.
Test [7] can be described thus: blockade of melanocortin 4 receptor signaling – cell-based, plate reader, cherry pick, counter-screen for LGR2 antagonist project, dose response (AID 743444).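 Note: transfected HEK 293 cells stimulated with alpha-MSH peptide; potency of inhibitors of the alpha-MSH evoked signal.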 Format: functional. In general terms: Counterscreens check selectivity or assay interference.
Test [8] concerns the target T3, Oxysterols receptor LXR-beta (Homo sapiens, UniProt P55055).
T3 sequence (P55055 whole entry): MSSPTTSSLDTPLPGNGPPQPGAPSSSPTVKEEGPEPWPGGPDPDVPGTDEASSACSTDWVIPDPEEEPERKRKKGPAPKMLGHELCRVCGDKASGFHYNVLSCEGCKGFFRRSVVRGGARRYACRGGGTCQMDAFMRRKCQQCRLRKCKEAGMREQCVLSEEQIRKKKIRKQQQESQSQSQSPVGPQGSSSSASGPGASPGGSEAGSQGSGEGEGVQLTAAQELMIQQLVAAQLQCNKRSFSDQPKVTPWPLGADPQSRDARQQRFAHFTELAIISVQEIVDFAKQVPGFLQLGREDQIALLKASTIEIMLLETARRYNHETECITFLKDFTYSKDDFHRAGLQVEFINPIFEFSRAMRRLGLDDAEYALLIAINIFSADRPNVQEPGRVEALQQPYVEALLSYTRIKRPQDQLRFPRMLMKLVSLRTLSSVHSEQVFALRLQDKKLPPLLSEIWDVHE
It counts as functional, cell-based.

Test [9] concerns the target Photoreceptor-specific nuclear receptor (Homo sapiens, UniProt Q9Y5X4). Format: functional, cell-based.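 Note: CHO-S cells with Gal4-NCOR and VP16-NR2E3 two-hybrid luciferase reporter.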
In test [10] the target is T3, Oxysterols receptor LXR-beta. Description: LXR agonists, Gal4 luciferase reporter, dose response, counter-screen for ssDAF-12 agonist project, cell-based, luminescence, HEK293, S. stercoralis campaign (AID 720737). It counts as functional. As to conditions: read-out: IC50 (the source's name).
Test [11] can be described thus: Luminescence-based cell-based high throughput dose response assay to identify activators of the DAF-12 from the parasite S. stercoralis (ssDAF-12). Format: functional.
Test [12] addresses Nonstructural protein 1 (Influenza A virus, UniProt Q194T2). It counts as functional, Influenza A virus (A/California/07/2009(H1N1)).
The target of test [13] is T4, Rac GTPase-activating protein 1 (Homo sapiens, UniProt Q9H0H5).
T4 sequence (Q9H0H5 whole entry): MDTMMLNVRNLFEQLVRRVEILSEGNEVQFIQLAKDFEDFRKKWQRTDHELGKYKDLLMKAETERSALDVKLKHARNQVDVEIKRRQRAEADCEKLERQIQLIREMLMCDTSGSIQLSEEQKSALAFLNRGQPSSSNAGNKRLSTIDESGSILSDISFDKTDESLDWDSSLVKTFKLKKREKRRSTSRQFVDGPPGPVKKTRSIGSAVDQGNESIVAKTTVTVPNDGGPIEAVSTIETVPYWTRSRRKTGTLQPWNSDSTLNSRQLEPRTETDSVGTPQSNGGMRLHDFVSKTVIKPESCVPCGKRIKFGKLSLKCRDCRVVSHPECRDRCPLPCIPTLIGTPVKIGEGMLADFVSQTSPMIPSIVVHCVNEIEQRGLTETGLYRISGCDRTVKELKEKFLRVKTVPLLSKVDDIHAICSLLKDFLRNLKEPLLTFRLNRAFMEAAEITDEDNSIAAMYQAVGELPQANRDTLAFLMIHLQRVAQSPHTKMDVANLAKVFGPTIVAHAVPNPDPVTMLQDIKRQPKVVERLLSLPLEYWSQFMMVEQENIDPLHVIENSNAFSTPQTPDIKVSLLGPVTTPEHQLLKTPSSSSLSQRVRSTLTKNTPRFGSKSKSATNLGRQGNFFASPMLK
The experiment in a line: blockers of MgcRacGAP-driven Rac1 GTP hydrolysis – biochemical, ADP Hunter fluorescence, primary and confirmatory, confirmation (AID 624330). It counts as functional.

Test [14] concerns the target T5, Apoptotic protease-activating factor 1 (Homo sapiens, UniProt O14727).
T5 sequence (O14727 whole entry): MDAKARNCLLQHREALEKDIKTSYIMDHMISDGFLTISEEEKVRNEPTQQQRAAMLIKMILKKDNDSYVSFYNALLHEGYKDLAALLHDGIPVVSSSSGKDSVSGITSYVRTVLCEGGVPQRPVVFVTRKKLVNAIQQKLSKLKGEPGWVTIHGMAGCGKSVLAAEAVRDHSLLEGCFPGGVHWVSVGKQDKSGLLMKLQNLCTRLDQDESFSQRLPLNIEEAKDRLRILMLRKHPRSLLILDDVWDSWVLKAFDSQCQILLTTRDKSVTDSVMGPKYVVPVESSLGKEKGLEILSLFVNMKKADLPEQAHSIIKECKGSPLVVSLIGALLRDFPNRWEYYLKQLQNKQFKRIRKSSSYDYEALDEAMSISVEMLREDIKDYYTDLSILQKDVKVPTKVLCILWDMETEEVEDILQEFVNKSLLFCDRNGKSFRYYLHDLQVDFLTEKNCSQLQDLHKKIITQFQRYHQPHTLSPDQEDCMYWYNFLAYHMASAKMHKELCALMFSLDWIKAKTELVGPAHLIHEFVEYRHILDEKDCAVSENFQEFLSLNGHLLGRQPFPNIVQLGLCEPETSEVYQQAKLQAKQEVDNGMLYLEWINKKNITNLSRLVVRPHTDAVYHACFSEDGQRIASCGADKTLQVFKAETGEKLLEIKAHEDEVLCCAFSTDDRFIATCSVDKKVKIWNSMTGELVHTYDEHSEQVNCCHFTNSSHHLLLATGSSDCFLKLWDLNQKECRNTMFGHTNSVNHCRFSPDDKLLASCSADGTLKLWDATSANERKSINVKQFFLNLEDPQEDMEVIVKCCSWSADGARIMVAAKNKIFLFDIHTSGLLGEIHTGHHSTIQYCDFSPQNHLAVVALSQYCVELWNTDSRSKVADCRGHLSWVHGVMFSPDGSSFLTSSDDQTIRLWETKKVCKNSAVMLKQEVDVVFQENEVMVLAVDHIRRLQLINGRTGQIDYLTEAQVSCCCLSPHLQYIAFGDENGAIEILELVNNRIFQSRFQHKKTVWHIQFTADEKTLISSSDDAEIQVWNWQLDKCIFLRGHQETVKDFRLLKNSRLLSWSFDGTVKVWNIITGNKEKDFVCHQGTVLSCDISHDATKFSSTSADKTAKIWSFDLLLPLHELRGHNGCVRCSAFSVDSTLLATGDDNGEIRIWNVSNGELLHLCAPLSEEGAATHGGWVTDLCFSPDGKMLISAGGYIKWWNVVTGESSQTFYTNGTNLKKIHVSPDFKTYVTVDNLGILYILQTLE
Format: functional.

The nature of test [15]: viability loss in HeLa cells – cytotoxicity control for MgcRacGAP inhibitor project, dose response (AID 624300). Format: functional.
The subject of test [16] is INS1. Description: INS-1E survival protection against cytokine death – cell-based, luminescence, retest, dose response (AID 449756).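 Note: cell death triggered by IL-1 beta plus TNF-alpha plus IFN-gamma mixture; protective hits raise ATP signal compared with cytokine alone wells.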 Format: functional. As to conditions: Rattus norvegicus.
Test [17] can be described thus: HEK-293T viability loss after treatment – luminescence, T-cell screen hits, cytotoxicity control for TCR NF-kB inhibitor project, dose response (AID 489026).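 Note: cells exposed to compound about 14 hours before the viability readout.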 It counts as functional, cell-based.
Test [18] concerns the target Cytochrome P450 3A4 (Homo sapiens, UniProt P08684).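 Note: CYP3A4 tested as one member of a cytochrome P450 panel screen.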
For test [19], the target named is Cytochrome P450 2D6 (Homo sapiens, UniProt P10635).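 Note: CYP2D6 member of a cytochrome P450 panel assay.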
Sequence of Cytochrome P450 2D6 (P10635 whole entry): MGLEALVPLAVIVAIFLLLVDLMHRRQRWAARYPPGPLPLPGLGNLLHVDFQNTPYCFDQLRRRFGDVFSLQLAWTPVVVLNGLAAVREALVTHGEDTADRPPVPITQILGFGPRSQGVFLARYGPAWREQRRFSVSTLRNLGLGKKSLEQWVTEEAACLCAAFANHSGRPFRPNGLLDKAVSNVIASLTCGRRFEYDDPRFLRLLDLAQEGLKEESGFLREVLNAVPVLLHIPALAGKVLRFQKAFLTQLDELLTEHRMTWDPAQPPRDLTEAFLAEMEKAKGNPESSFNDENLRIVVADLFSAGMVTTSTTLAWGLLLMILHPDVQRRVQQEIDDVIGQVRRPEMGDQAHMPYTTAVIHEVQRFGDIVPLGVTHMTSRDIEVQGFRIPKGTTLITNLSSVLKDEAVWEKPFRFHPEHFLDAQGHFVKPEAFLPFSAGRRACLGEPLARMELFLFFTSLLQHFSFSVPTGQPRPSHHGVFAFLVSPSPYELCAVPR
Test [20] has as its target T6, Cytochrome P450 1A2 (Homo sapiens, UniProt P05177).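 Note: PubChem cytochrome P450 panel assay, CYP1A2 panel member.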
T6 sequence (P05177 whole entry): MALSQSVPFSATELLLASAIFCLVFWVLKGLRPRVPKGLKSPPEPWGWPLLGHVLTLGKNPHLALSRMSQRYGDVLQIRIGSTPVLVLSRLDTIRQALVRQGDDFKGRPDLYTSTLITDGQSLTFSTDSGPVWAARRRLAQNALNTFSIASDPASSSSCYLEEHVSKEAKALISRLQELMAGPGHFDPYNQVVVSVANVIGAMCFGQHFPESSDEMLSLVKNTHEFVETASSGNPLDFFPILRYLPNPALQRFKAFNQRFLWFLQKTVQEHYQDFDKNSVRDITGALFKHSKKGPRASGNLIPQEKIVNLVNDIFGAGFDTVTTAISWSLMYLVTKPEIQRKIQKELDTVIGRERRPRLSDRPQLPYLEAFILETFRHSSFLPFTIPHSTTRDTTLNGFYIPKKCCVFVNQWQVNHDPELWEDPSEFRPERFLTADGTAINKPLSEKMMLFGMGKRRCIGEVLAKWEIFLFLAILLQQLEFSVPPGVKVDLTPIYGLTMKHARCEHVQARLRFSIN

SMILES strings stand for the structures. Calls of active or inactive are those of the source.

Sequence of Cytochrome P450 3A4 (P08684 whole entry): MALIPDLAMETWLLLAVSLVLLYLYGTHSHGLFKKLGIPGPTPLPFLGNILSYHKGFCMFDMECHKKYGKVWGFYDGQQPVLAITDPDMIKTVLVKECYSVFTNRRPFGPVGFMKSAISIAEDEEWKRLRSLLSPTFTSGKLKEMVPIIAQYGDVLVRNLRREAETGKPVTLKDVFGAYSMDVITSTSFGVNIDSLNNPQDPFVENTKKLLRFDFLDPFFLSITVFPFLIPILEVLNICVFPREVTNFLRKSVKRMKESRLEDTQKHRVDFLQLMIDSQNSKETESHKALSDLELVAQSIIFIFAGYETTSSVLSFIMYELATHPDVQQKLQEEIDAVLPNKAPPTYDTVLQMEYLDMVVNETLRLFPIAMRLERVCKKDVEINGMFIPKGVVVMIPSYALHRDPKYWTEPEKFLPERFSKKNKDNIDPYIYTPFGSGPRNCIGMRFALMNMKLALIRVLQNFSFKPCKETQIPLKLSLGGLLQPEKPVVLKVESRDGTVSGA
Sequence of Photoreceptor-specific nuclear receptor (Q9Y5X4 whole entry, the tested form may be a part): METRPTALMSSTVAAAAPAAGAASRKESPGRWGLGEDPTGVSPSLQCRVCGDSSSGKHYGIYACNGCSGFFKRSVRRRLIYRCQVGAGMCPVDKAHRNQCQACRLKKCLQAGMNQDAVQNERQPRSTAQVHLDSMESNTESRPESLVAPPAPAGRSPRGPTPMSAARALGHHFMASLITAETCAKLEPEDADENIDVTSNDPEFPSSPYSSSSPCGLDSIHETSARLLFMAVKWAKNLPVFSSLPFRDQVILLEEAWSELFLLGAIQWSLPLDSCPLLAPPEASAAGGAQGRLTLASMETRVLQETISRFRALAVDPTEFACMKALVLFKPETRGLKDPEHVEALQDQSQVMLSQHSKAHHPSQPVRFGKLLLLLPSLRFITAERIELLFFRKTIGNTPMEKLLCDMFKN
Sequence of Nonstructural protein 1 (Q194T2 whole entry): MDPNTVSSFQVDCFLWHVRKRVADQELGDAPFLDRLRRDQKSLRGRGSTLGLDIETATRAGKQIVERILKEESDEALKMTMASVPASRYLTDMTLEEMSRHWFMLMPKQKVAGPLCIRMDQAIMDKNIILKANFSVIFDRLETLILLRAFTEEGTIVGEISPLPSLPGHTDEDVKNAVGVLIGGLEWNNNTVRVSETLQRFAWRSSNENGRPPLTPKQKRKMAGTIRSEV
Sequence of Glyceraldehyde-3-phosphate dehydrogenase (P04406 whole entry): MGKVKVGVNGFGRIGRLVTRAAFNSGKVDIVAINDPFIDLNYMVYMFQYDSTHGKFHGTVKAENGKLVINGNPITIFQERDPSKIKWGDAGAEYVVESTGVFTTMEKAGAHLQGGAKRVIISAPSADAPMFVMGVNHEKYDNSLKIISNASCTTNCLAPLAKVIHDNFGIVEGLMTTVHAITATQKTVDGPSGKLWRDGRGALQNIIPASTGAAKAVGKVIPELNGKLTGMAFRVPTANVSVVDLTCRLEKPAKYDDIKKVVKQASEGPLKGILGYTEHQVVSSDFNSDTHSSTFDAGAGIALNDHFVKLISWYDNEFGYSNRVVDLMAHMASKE

As a reminder, the IC50 is the concentration that gives 50% inhibition. Consider `O=C(CSc1nnc(-c2ccccc2)n1-c1ccc(Cl)cc1)NNC(=S)Nc1ccccc1`, for which, in test [1], the IC50 was > 122 µM (inactive).

Take `O=C(O)c1cc(S(=O)(=O)Nc2ccccc2C(=O)O)ccc1O`: the concentration for half-maximal inhibition (IC50) in [2] was > 100 µM (not active); in test [3] it was > 9.99 µM (inactive).

With `CCOC(=O)N1CCC(NC(=O)c2cc3cc4cc(OC)ccc4nc3o2)CC1`, the IC50 in test [3] is > 0.37 µM (active).

For orientation: AC50 means the midpoint of the concentration-response curve, whichever way the signal moves. As to `Cc1cccc(NC(=O)CN2C(=O)N/C(=C\c3ccc(-c4cccc(C(=O)O)c4)o3)C2=O)c1`, the half-maximal activity concentration (AC50) in [4] was 3.6 µM (active).

With `CC(C)(C)n1cc(C(=O)c2ccc3ccccc3c2O)cn1`, the half-maximal activity concentration (AC50) in test [5] is 6.45 µM (active); in [6], > 52 µM (inactive); in test [7], 14.3 µM (active).

Turning to `Cc1ccnc(NC(=O)C2CCN(S(=O)(=O)c3c(C)c(C)cc(C)c3C)CC2)c1`, the EC50 in test [8] is > 67.6 µM (inactive). Moreover, in test [9], the IC50 is 1.85 µM (active).

As for `O=C1/C(=C\c2cccs2)Sc2ccc3ccccc3c21`, the EC50 in [8] was > 67.5 µM (inactive); in [10], > 67.6 µM (inactive). In test [11], the IC50 is > 67.6 µM (inactive).

As a reminder, the CC50 is the concentration at which the toxic effect on the cells reaches its halfway point. Turning to `Cc1ccc(S(=O)(=O)NC2=CC(=Nc3ccc(O)cc3)C(=O)c3ccccc32)cc1`, the 50% inhibitory concentration (IC50) in test [12] was 7.33 µM (active); in [13] it was 78.2 µM (active); in test [14], 2.14 µM (active); in [17], 1.58 µM (active). Further, the cytotoxic concentration (CC50) in test [15] is 2.86 µM (active). Further, the AC50 in test [16] was 0.588 µM (active).

Take `COc1ccc(CNC(=O)COC(=O)c2ccc(Br)c(S(=O)(=O)N3CCOCC3)c2)cc1`: the AC50 in test [4] was > 100 µM (inactive).

In the case of `Cc1ccc(-c2nnc(SCC(=O)NN=C(S)Nc3ccccc3)n2C2CCCCC2)cc1`, the IC50 in [1] is > 122 µM (inactive).

In the case of `O=[N+]([O-])c1ccccc1/C=N/n1c(S)nnc1C1CCCCC1`, the IC50 in [1] was > 122 µM (inactive).

`CCN(CC)c1ccc(/C=N/NC(=O)c2ccc3c(c2)OCCO3)cc1`: the AC50 in test [4] is 74.2 µM (active).

Take `NC(=Nc1ccccc1)NC(=O)c1nc(Cl)c(N)nc1N` [PHENAMIL METHANESULFONATE]: the AC50 is 39.8 µM (inconclusive) in test [18], 31.6 µM (inconclusive) in [19] and 12.6 µM (inconclusive) in test [20]. In addition, in test [8], the EC50 was > 67.5 µM (inactive).
